Data reported in US5686606A, “UCF116 compounds” (Kyowa Hakko Kogyo, Co., Ltd., priority 1994, dated 1997).
Converted amounts (≈) assume the structure as drawn. Like-named read-outs stand apart in the source and are kept apart here.

Columns and labels:
HR-3Y1 cells = experiment: Growth inhibition against HR-3Y1 cells; format: cell-based; conditions: 72 hours, 37° C., Giemsa staining
Procedure: An HR-3Y1 cell suspension (3.0×10^4 cells/ml) prepared by suspending HR-3Y1 cells in a medium comprising MEM medium (Nissui Pharmaceutical Co., Ltd.) and 10% fetal calf serum (hereinafter referred to as Medium A) was put into wells of a 96-well microtiter plate in an amount of 0.1 ml per well. After the cells in the plate were cultivated at 37° C. for 20 hours in a CO2 -incubator, a test compound appropriately diluted with Medium A was added to the wells in an amount of 0.1 ml per well. The cells were further cultivated at 37° C. for 72 hours in the CO2 -incubator. After the cultivation supernatant was removed, the residue was washed once with physiological saline and then treated with 0.1 ml of methanol for 10 minutes to fix the cells. The cells were stained with 0.1 ml of Giemsa's staining solution [Giemsa's staining solution, Merck Art 9204 (Merck & Co., Inc.): physiological saline=1:10] for 5 minutes. After the staining solution was removed, the residue was washed once with 0.2 ml of water. Then, the dye was extracted with 0.2 ml of 0.1 N hydrochloric acid and the absorbance was measured at 620 nm with a microplate reader.
The concentration of the test compound at which the growth of the cells is inhibited by 50% (IC50) was calculated by comparing the absorbance of untreated cells with those of the cells treated with the test compound at known concentrations.

[1] = test system: Staphylococcus aureus ATCC 6538P; experiment: Antibacterial activity (MIC), agar dilution method; format: cell-based; conditions: ATCC6538P, pH 7
Procedure: (§1) The antibacterial activity was determined by the agar dilution method using a medium (pH 7) which comprises 3 g/l Bacto-tryptone (Difco Laboratories),3 g/l meat extract, 1 g/f yeast extract, 1 g/l glucose and 16 g/l agar.

[2] = test system: Candida albicans ATCC 10231; experiment: Antibacterial activity (MIC), agar dilution method; format: cell-based
Procedure: as §1

[3] = test system: Enterococcus faecium ATCC 10541; experiment: Antibacterial activity (MIC), agar dilution method; format: cell-based
Procedure: as §1

Solubility = format: physicochemical
[4] = test system: isogenic tumor in K-BALB mice; experiment: Antitumor activity against isogenic tumor system in K-BALB mice; format: in vivo; conditions: 10.0 mg/kg, intraperitoneal, 5 consecutive days from 7th day after s.c. transplantation, BALB/c mouse
Procedure: The antitumor activity against an isogenic tumor system in K-BALB mice was measured according to the method described in Proc. Natl. Acad. Sci., 90, 2281 (1993). That is, an isogenic tumor in K-BALB mice was resected from a donor mouse, and a 2×2×2 mm (8 mm^3) tumor piece was subcutaneously transplanted into a BALB/c mouse at the ventral side using a trocar. After the graft survival was confirmed on the 7th day after the transplantation, a test compound was intraperitoneally administered for 5 consecutive days from the same day. The longer diameter and the shorter diameter of the tumor were measured with slide calipers, and the tumor volume was calculated according to the formula: (longer diameter)×(shorter diameter)^2 /2 [Cancer Chemother. Rep., Part III, 3, 1 (1972)]. The antitumor effect was evaluated in terms of T/C, the ratio of the tumor volume of a test compound-treated group (T) to that of an untreated group (C).

BALB 3T3/H-ras cells = experiment: Growth inhibition against BALB 3T3/H-ras cells; format: cell-based; conditions: Mus musculus, 72 hours, 37° C., Giemsa staining
Procedure: A BALB 3T3/H-ras cell suspension (3.0×10^4 cells/ml) prepared by suspending BALB 3T3/H-ras cells ([…]) in a medium comprising MEM medium (Nissui Pharmaceutical Co., Ltd.) and 10% fetal calf serum (hereinafter referred to as Medium A) was put into wells of a 96-well microtiter plate in an amount of 0.1 ml per well. After the cells in the plate were cultivated at 37° C. for 20 hours in a CO2 -incubator, a test compound appropriately diluted with Medium A was added to the wells in an amount of 0.1 ml per well. The cells were further cultivated at 37° C. for 72 hours in the CO2 -incubator. After the cultivation supernatant was removed, the residue was washed once with physiological saline and then treated with 0.1 ml of methanol for 10 minutes to fix the cells. The cells were stained with 0.1 ml of Giemsa's staining solution [Giemsa's staining solution, Merck Art 9204 (Merck & Co., Inc.): physiological saline=1:10] for 5 minutes. After the staining solution was removed, the residue was washed once with 0.2 ml of water. Then, the dye was extracted with 0.2 ml of 0.1 N hydrochloric acid and the absorbance was measured at 620 nm with a microplate reader. […]

[5] = Staphylococcus aureus ATCC 6538P, agar dilution, read-out: MIC
[6] = ATCC10231, Candida albicans ATCC 10231, agar dilution, pH 7, read-out: MIC
[7] = ATCC10541, Enterococcus faecium ATCC 10541, agar dilution, pH 7, read-out: MIC

SMILES	IC50 (HR-3Y1 cells) [µM]	MIC [1, 5] [µg/mL]	MIC [2, 6] [µg/mL]	MIC [3, 7] [µg/mL]	Solubility in DMSO, chloroform, acetone and ethyl acetate (Solubility)	Solubility in water and hexane (Solubility)	T/C (ratio of tumor volume of treated group to untreated group) [4]	IC50 (BALB 3T3/H-ras cells) [µM]	MIC ([1]; Staphylococcus aureus) [µg/mL]	MIC ([2]; Candida albicans, ATCC10231, pH 7) [µg/mL]	MIC ([3]; Enterococcus faecium, ATCC10541, pH 7) [µg/mL]
CO[C@H]1/C=C/C=C/C=C/C[C@H](OC(=O)C2(NC(=O)C3CCCCC3)CC2)[C@H](C)[C@@H](O)/C(C)=C\CCC2=CC(=O)C=C(NC(=O)C1)C2=O [UCF116-A3]	0.95	41.7 (≈ 64.3 µM)	41.7 (≈ 64.3 µM)	83.3 (≈ 128 µM)	Soluble	insoluble	–	–	–	–	–
CO[C@H]1/C=C/C=C/C=C/C[C@H](OC(=O)[C@@H](C)NC(=O)C2=CCCCC2)[C@H](C)[C@@H](O)/C(C)=C\CCc2cc(O)cc(c2O)NC(=O)C1 [UCF116-B]	0.35	41.7 (≈ 65.5 µM)	20.8 (≈ 32.7 µM)	41.7 (≈ 65.5 µM)	Soluble	insoluble	0.25	0.39	–	–	–
C/C=C(\C)C(=O)N[C@H](C)C(=O)O[C@H]1C/C=C/C=C/C=C/[C@H](OC)CC(=O)Nc2cc(O)cc(c2O)CC/C=C(/C)[C@H](O)[C@H]1C [UCF116-D]	–	–	–	–	Soluble	insoluble	–	0.66	83.3 (≈ 136 µM)	83.3 (≈ 136 µM)	83.3 (≈ 136 µM)
